Activity calls are given as the source filed them.
Key:
[1] = HEp-2 cell cytotoxicity, dose response, cytotoxicity control for RSV inhibitor project, HTS (AID 2410); type: functional; settings: human respiratory syncytial virus
[2] = cells
[3] = biological target: T1, Cytochrome P450 2C9 (Homo sapiens, UniProt P11712)
[4] = biological target: T1, Cytochrome P450 2C9; settings: Potency
[5] = biological target: Cytochrome P450 2D6 (Homo sapiens, UniProt P10635);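 note: CYP2D6 member of a cytochrome P450 panel assay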
[6] = biological target: Induced myeloid leukemia cell differentiation protein Mcl-1 (Homo sapiens, UniProt Q07820); type: functional
[7] = biological target: T2, RNA-binding protein pos-1 (Caenorhabditis elegans, UniProt G5EF15); experiment: inhibitors of POS-1/mex-3 RNA binding, dose response, biochemical, fluorescence polarization (AID 1964);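 note: purified POS-1 fused to maltose binding protein made in E. coli; potency of compounds blocking POS-1 binding to fluorescent RNA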
T2 sequence (G5EF15 whole entry): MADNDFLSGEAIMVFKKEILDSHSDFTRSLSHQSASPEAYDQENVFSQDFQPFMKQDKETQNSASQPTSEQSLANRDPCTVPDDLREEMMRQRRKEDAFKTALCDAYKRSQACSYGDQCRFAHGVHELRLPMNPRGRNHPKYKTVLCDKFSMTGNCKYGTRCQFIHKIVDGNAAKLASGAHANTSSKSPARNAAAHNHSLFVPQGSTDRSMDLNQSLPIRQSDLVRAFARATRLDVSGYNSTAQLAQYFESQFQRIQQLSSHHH

[8] = biological target: T3, Zinc finger protein mex-5 (Caenorhabditis elegans, UniProt Q9XUB2); experiment: MEX-5/TCR-2 RNA interaction inhibitors, dose response, biochemical, C. elegans, fluorescence polarization (AID 1960)
T3 sequence (Q9XUB2 whole entry): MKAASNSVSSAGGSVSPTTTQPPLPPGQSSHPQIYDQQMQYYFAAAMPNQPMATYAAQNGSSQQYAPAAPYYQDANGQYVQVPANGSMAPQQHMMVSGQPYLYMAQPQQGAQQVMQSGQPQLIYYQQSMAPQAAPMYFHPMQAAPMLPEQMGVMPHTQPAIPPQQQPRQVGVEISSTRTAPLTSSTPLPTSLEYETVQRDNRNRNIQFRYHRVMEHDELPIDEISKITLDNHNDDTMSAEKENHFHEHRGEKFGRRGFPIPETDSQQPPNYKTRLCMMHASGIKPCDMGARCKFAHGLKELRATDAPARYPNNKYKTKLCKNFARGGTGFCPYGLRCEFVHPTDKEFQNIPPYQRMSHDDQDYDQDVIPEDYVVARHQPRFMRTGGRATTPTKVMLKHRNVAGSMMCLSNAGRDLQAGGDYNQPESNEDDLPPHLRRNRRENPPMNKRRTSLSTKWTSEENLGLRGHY

[9] = biological target: T4, RNA-editing ligase 1, mitochondrial (Trypanosoma brucei brucei, UniProt P86926); experiment: TbREL1 ligase inhibitors, dose response, biochemical, fluorescence, Trypanosoma brucei (AID 1117295); type: functional
T4 sequence (P86926 whole entry): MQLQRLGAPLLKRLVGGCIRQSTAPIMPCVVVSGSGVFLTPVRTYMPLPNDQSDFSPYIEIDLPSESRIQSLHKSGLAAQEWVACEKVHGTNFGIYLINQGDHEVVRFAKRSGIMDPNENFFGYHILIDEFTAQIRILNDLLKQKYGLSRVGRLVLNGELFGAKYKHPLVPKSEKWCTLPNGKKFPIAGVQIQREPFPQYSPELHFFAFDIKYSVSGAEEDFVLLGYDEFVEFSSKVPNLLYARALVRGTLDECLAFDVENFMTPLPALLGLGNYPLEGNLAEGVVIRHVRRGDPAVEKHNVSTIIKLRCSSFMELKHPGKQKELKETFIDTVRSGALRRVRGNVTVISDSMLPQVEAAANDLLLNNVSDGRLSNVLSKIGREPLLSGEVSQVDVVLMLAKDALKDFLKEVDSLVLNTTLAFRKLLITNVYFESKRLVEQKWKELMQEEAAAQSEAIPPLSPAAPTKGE

[10] = A cytotoxicity screen of small molecule inhibitors of the PhoP region in Salmonella typhi identified in the primary screen. [Related pubchem assays: 1850, 1864, 1985 ]; type: functional
[11] = biological target: T5, Protein Tat (Human immunodeficiency virus type 1 group M subtype B (isolate HXB2)(HIV-1), UniProt P04608); type: functional;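 note: tat binding to TAR RNA read out by fluorescence polarization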
T5 sequence (P04608 whole entry): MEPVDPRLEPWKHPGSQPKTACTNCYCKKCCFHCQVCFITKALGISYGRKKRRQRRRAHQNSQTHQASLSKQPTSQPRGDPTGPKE

[12] = inhibitors of Vif binding to APOBEC3G peptide, primary screen, biochemical, TR-FRET, GST-Vif 1-94, biotin-A3G peptide, dose response retest (AID 1117319); type: functional;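 note: TR-FRET signal of purified GST-Vif binding a biotinylated A3G peptide; inhibitors lower the FRET signal by blocking Vif and A3G binding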
[13] = tested on: Vero; experiment: host cell cytotoxicity of antiviral hits, dose response, cytotoxicity control for West Nile virus antiviral project, secondary assay (AID 1650); type: functional; settings: Chlorocebus sabaeus
[14] = inhibitors of firefly luciferase expression or activity, dose response, H4 neuroglioma cells, luminescence (AID 1990); type: functional, cell-based
[15] = biological target: T6, Galanin receptor type 3 (Homo sapiens, UniProt O60755); experiment: Fluorescence-based cell-based primary high throughput dose response assay to identify antagonists of the Galanin Receptor 3 (GalR3).; type: functional
T6 sequence (O60755 whole entry): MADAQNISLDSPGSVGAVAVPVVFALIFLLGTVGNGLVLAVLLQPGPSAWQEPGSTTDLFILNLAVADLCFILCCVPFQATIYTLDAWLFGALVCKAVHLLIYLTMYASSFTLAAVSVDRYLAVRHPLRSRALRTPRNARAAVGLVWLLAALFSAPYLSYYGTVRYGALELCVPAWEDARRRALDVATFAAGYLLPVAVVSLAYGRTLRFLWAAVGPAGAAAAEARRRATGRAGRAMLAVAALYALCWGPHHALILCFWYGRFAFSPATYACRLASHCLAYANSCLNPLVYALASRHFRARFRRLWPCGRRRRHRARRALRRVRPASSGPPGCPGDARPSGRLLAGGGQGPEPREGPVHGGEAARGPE

[16] = cells; type: functional, cell-based; settings: HEK-CNG
[17] = Luminescence Cell-Based Dose Response HTS to Identify Inhibitors of 5'UTR Stem-Loop Driven Prion Protein mRNA Translation in H4 Neuroglioblastoma Cells. [Related pubchem assays: 1827 (Project Summary), 1813 (Primary HTS)]; type: functional
[18] = Luminescence Cell-Based Dose Retest to Confirm Inhibitors of Cancer Stem Cells. [Related pubchem assays (depositor defined):AID2717, AID2721]; type: functional; settings: Homo sapiens
[19] = inhibitors of SNCA 5'UTR-driven reporter translation, confirmation, H4 neuroglioma cells, luminescence (AID 1988); type: functional, cell-based
[20] = inhibitors of intracellular T. cruzi replication, confirmation, NIH3T3 host cells, beta-gal luminescence (AID 2044); type: functional, cell-based;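 note: intracellular parasites grown in NIH/3T3 mouse fibroblasts as host cells; luminescent beta-galactosidase reporter signal from transgenic T. cruzi replicating inside host cells; inhibitors lower the luminescence signal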
[21] = cytotoxicity toward NIH3T3 fibroblasts, dose response, counter-screen, cell-based, ATP luminescence, mouse fibroblasts (AID 2010); type: functional;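 note: cells exposed to compound for about 90 hours before reading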

T1 sequence (P11712 whole entry): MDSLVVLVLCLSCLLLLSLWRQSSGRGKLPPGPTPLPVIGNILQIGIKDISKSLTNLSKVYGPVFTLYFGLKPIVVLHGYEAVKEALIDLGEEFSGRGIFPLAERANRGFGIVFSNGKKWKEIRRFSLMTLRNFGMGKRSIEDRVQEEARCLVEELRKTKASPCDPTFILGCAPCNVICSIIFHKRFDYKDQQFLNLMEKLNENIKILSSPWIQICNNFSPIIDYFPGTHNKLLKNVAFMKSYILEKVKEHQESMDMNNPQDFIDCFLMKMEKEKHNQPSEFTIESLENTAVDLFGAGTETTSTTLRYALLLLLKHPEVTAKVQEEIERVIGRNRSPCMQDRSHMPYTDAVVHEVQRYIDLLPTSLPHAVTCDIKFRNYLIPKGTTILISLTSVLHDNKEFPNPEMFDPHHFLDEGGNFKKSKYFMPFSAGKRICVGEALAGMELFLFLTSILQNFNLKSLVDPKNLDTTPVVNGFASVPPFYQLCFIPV
Sequence of Induced myeloid leukemia cell differentiation protein Mcl-1 (Q07820 whole entry, the tested form may be a part): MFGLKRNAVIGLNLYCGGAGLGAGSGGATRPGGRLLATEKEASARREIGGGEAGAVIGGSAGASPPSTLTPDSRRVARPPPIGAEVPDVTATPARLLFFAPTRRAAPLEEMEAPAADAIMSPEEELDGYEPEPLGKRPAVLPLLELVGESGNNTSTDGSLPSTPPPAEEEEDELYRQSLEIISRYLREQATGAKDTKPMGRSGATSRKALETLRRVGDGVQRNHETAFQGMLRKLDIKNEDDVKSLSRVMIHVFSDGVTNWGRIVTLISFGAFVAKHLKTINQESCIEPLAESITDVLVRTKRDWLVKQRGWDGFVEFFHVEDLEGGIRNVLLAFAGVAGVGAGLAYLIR
Sequence of Cytochrome P450 2D6 (P10635 whole entry): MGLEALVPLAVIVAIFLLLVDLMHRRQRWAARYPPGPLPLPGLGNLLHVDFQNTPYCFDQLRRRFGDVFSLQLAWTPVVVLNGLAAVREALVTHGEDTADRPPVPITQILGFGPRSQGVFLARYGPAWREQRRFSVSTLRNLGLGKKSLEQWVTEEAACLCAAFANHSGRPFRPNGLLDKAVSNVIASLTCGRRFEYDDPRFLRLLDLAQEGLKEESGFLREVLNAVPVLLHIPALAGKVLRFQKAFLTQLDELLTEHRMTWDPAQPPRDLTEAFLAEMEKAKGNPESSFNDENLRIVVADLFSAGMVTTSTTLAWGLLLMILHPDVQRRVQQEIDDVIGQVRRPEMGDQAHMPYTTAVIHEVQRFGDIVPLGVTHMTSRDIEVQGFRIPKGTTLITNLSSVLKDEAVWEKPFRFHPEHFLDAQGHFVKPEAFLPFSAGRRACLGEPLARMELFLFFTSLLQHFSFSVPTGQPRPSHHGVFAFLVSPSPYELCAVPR

NC(=O)[C@H]1CC2(CC(c3cccc(NC(=O)COc4ccc(Cl)cc4)c3)=NO2)CN1C(=O)c1ccccc1C(=O)c1ccccc1 (some centres not stated)
CC50 [1]: 12.3 µM (active) | IC50 [2]: 24.9 µM (active)

C[C@@H](/C=C\c1cccc(Oc2ccc(F)cc2)c1)N(O)C(N)=O
AC50 [3]: 31.6 µM (inconclusive) | AC50 [4]: 25.1 µM (inconclusive) | AC50 [5]: 10 µM (inconclusive)

Cc1cc(C)c2c(c1)C1C=CCC1C(c1ccc(S(=O)(=O)N3CCOCC3)cc1)N2 (configuration not stated)
CC50 [1]: 15.6 µM (active) | IC50 [2]: 11.7 µM (active) | IC50 [6]: 2.74 µM (active) | EC50 [7]: > 300 µM (not active) | EC50 [8]: > 300 µM (not active)

CC(NCC(O)COc1ccc2ccccc2c1)c1ccccc1 (configuration not stated)
CC50 [1]: 24.1 µM (active) | IC50 [2]: > 25 µM (active) | IC50 [9]: > 96.6 µM (inactive)

CC(C)C(c1nnnn1Cc1ccccc1)N(CCCO)Cc1cc2cc3c(cc2nc1O)OCO3 (configuration not stated)
EC50 [10]: > 50 µM (active)

Cc1ccc(N2C(=O)[C@@H]3[C@H](C2=O)[C@H]2C=CC=NN2[C@@H]3C(=O)Nc2ccc(Cl)cc2)cc1
IC50 [11]: > 100 µM (active) | IC50 [12]: > 100 µM (active) | EC50 [10]: > 50 µM (active)

C[C@]12CC[C@H]3C(CCC4(O)CC(O)CC[C@]34C=O)C1=CC[C@H]2c1ccc(=O)oc1 (some centres not stated)
CC50 [13]: 20.5 µM (active) | EC50 [14]: 6.93 µM (active) | IC50 [15]: > 29.9 µM (inactive) | EC50 [16]: > 29.9 µM (inactive) | EC50 [17]: 5.93 µM (active) | AC50 [18]: 3.49 µM (active) | EC50 [19]: 1.62 µM (active)

CCNc1nc(N)nc(Oc2ccc(OCCOc3ccc(Cl)cc3Cl)nn2)n1
EC50 [20]: 0.668 µM (active) | EC50 [21]: 6.72 µM (active) | EC50 [10]: > 50 µM (active)
